The text below walks through data of patent publication US20090192071A1, “USE OF PHOTODYNAMIC THERAPY TO ENHANCE TREATMENT WITH IMMUNO-MODULATING AGENTS” (DUSA PHARMACEUTICALS, INC., priority 2004, published 2009).

A short description of series [1]: Combination therapy (ALA photodynamic therapy plus imiquimod) in a patient with warts. It is filed as in vivo. Conditions: Example 7: ALA topical cream, white light several hours later, then reduced course of imiquimod. The procedure:
A patient with warts is administered ALA in the form of a topical cream, which is applied to the affected area. Several hours after administration of the ALA, the patient is exposed to white light. Subsequently, the patient is administered a reduced course of imiquimod therapy.

Series [2] is described as follows: Combination therapy (ALA photodynamic therapy plus alefacept) in patients with psoriasis. The note with it: for alleviation of symptoms: then reduced course of alefacept. The format is in vivo, patient.
Another series deals with Basal Cell Carcinoma. Briefly: Combination therapy (ALA photodynamic therapy plus imiquimod) in a patient with Basal Cell Carcinoma. The note with it: Example 3: ALA topical cream, red light several hours later, then a course of imiquimod. It is filed as in vivo. On the procedure: A patient with a Basal Cell Carcinoma is administered ALA in the form of a topical cream, which is applied to the affected areas. Several hours after administration of the ALA, the patient is exposed to an activating red light. Subsequently, the patient is administered a course of imiquimod therapy.

The conditions of series [3]: cited from earlier work.

`NCC(=O)CCC(=O)O` [ALA, 5-Amino-4-oxopentanoic acid]: the alleviation of symptoms entry in series [1] is “alleviation of symptoms soon after receiving the treatment”; in series [2] (Example 4: ALA topical cream, activating light several hours later) it was “alleviation of symptoms soon after receiving the treatment”; in series [2] (Example 5: ALA i.v. injection, 5 J/cm^2 of 417 nm blue light after one to three hours) it was “alleviation of symptoms soon after receiving the treatment”; in series [2] (Example 6: oral ALA, 10 J/cm^2 of 417 nm blue light after one to three hours), “alleviation of symptoms soon after receiving the treatment”. Also, in series [2] (Example 1: several patients, topical ALA, then Intense Pulsed Light (IPL), then alefacept as normally done), the improvement of psoriasis entry is “almost immediate improvements”. The “return of psoriatic symptoms after cessation of alefacept therapy” value in series [2] (Example 2: topical ALA and blue light after a completed alefacept treatment cycle) is reported as “less return of their psoriatic symptoms”. The “resolution of the cancerous lesion” value in the series with Basal Cell Carcinoma is “rapid and complete resolution of the cancerous lesion”. Besides, the solubility in water entry in series [3] is recorded as “water soluble”.
